These results are taken from paper PMC6328008 (Journal of Enzyme Inhibition and Medicinal Chemistry, 2019).

Data set [1] relates to Panc1 pancreatic cancer cells. The data set is described as follows: Cancer cell line growth inhibition assay. The conditions noted are these: for Inhibition of growth of Panc1 cells (in words): 3 days, concentrations up to 10 µM. Format: cell-based, human.
Data set [2] has as its system normal mobilised peripheral blood progenitor cells. Particulars: listed as NSAH; cited from earlier work.

The structures appear in SMILES notation. Entries after “also recorded” stand apart in the source; their conditions may differ. Where only a bound is given, the exact number is not on record here.

As to `O=C(N/N=C/c1cc(-c2ccsc2)ccc1O)c1ccccc1O` [TP3, (E)-2-Hydroxy-N'-(2-hydroxy-5-(thiophen-3-yl)-benzylidene)-benzohydrazide], the “Fold decrease in potency in cells on removal of the methoxy (TP2, 3 vs TP5, 6)” value in data set [1] (Panc1) is on record as greater than 2 fold.
Take `O=C(N/N=C/c1c(O)ccc2ccccc12)c1ccccc1O` [TP8, (E)-2-Hydroxy-N'-((2-hydroxynaphthalen-1-yl)methylene)-benzohydrazide]: the “Toxicity against normal mobilised peripheral blood progenitor cells” value in data set [2] is recorded as “much less effective”.
As to `O=C(N/N=C/c1cc(-c2ccccc2)ccc1O)c1ccccc1O` [TP2, (E)-2-Hydroxy-N'-((4-hydroxy-[1,1'-biphenyl]-3-yl)methylene)-benzohydrazide], in data set [1] (Panc1), the “Fold decrease in potency in cells on removal of the methoxy (TP2, 3 vs TP5, 6)” value is greater than 2 fold.
As to `O=C1Nc2ccccc2/C1=N\NC(=O)c1ccccc1O` [TP1, (E)-2-Hydroxy-N'-(2-oxoindolin-3-ylidene)benzohydrazide], in data set [1], the “Inhibition of growth of Panc1 cells (in words)” value (from here on “Inhibition”) is “did not inhibit the growth”.
Same read-out and setting: under `Nc1ncnc2c1ncn2-c1ccc(/C=N/NC(=O)c2ccccc2O)cc1` [TP7, (E)-N'-(4–(6-amino-9H-purin-9-yl)benzylidene)-2-hydroxybenzohydrazide] stands “did not inhibit the growth”; under `O=C(NNC(=O)c1c(O)ccc2ccccc12)c1cccnc1` [TP11, N'-(2-Hydroxy-1-naphthoyl)-nicotinohydrazide], “did not inhibit the growth”.
`COc1ccc(-c2cnc(-c3ccccc3O)s2)cc1` [TP9, 2–(5-(4-Methoxyphenyl)thiazol-2-yl)-phenol]: the “Inhibition” value in data set [1] was “did not inhibit the growth; also recorded: ineffective”.
In the case of `COc1ccc(-c2ccsc2)c(/C=N/NC(=O)c2ccccc2O)c1O` [TP6, (E)-2-Hydroxy-N'-(2-hydroxy-3-methoxy-6-(thiophen-3-yl)benzylidene)-benzohydrazide], the “Fold decrease in IC50 over lead compound NSAH (TP8)” value in data set [1] (Panc1) was greater than 2 fold.
Consider `O=C(N/N=C/c1cccnc1)c1c(O)ccc2ccccc12` [TP12, (E)-2-Hydroxy-N'-(pyridin-3-ylmethylene)-1-naphthohydrazide], for which the “Inhibition” value in data set [1] is given as “did not inhibit the growth”.
On the same count and under the same terms, under `O=C(NNC(=O)c1ccccc1O)c1cccnc1` [TP13, N'-(2-Hydroxybenzoyl)-nicotinohydrazide] stands “did not inhibit the growth”.
